Measurements taken from patent US8273738B2, “Imidazole derivatives” (priority 2006, dated 2012).
Structures can show the parent of a compound that is named as a salt. Where two headings read alike, the source gives them in different places.

What was measured:
[1] = biological target: T1, CB2 receptor (Rattus norvegicus, UniProt Q9QZN9); assay: Cannabinoid CB2 receptor-binding activity ([3H]CP55940 binding experiment), rat spleen membrane specimen
T1 construct: from tissue; host or cells: rat spleen membrane specimen
T1 sequence (Q9QZN9 1-360): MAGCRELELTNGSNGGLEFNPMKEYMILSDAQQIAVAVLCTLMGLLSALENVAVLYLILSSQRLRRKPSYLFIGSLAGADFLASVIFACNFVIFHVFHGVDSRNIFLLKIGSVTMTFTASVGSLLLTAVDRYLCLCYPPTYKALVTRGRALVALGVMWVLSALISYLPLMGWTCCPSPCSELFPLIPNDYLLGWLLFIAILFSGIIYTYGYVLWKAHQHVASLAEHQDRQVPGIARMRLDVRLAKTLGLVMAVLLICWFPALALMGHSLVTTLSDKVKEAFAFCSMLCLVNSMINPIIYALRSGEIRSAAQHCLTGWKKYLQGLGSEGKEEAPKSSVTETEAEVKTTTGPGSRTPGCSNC
Description: A test was carried out according to the method of Hillard et al. [The Journal of Pharmacology and Experimental Therapeutics, vol. 289, p. 1427 (1999)]. A rat forebrain membrane specimen and a rat spleen membrane specimen were prepared and used in a binding experiment for a CB1 receptor and a binding experiment for a CB2 receptor, respectively. The membrane specimen (forebrain: final concentration of 0.5 mg of protein/mL, spleen: final concentration of 2 mg of protein/mL) was incubated together with a test compound and [^3H]CP55940 (manufactured by PerkinElmer) ((−)-cis-3-[2-hydroxy-[3,5-^3H]-4-(1,1-dimethylheptyl)phenyl]-trans-4-(3-hydroxypropyl)cyclohexanol)) (final concentration: 0.5 nmol/L) in an assay buffer (50 mmol/L Tris-HCl buffer (pH 7.4), 1 mmol/L EDTA and 3 mmol/L MgCl2) containing 0.1% bovine serum albumin at 25° C. for 1 hour, and the resulting mixture was filtered using a glass filter GF/C (manufactured by Whatman) treated with 1% polyethyleneimine. After the glass filter was washed with the assay buffer containing 0.2% bovine serum albumin, the radioactivity on the glass filter was measured using a liquid scintillation counter (TRI-CARB 2700TR, manufactured by Packard). The binding amount in the presence of 10 μmol/L […] (manufactured by Tocris) ((R)-(+)-[2,3-dihydro-5-methyl-3-(4-morpholinylmethyl)pyrrolo[1,2,3-de]-1,4-benzoxazin-6-yl]-1-naphthalenylmethanone) was considered to be a non-specific binding amount, and a difference between the total binding amount and the non-specific binding amount was considered to be a specific binding amount. The 50% inhibitory concentration (IC50 value) of the test compound against the specific binding was obtained, and the Ki value of the test substance was calculated from the 50% inhibitory concentration and the Kd value of the [^3H]CP55940 binding.

[2] = tested on: rats with chronic constriction nerve injury; assay: Analgesic effect in rats with chronic constriction nerve injury (von Frey filament); type: in vivo, rat; conditions: oral, dose of 50 mg/kg or less, one hour after administration, von Frey filaments
Source text: Rats with chronic constriction nerve injury were produced by partially modifying the method of Mosconi and Kruger et al. (Pain, vol. 64, pp. 37-57 (1996))
Male Crl:CD(SD) rats were used for the experiments. Under pentobarbital anesthesia, the sciatic nerve of the left hind limb of the rat was exfoliated, and the exfoliated region was wrapped with a polyethylene tube (trade name: Intramedic, size: PE-60, manufactured by Becton Dickinson and Company) of 2 mm in length. On days 14 to 21 after the surgery, the rats were placed in an acrylic connected cage with a wire mesh floor (900 mm (length)×210 mm (depth)×140 mm (height)) consisting of 4 cages connected in a row and allowed to acclimate to the environment for at least 20 minutes, and then, the pain was evaluated.
The von Frey filament (trade name: touch test sensory evaluator, Model number: model 58011, manufactured by Muromachi Kikai) was used to evaluate pain, and the results were calculated as a pain threshold. That is, by using a von Frey filament of different stimulus intensity, stimulation was given to the plantar surface of the injured side of rats with chronic constriction nerve injury, and the stimulus intensity to cause paw withdrawal response was obtained. Then, the 50% pain threshold (Paw withdrawal threshold) (g) was calculated by the up down method of Dixon [Annual Review of Pharmacology and Toxicology, vol. 20, pp. 441-462 (1980)].
In the evaluation of the test compound, rats with 50% pain threshold of less than 4 g were used, and the test compound was dissolved in a 0.5% aqueous methyl cellulose solution and orally administered at a dose of 5 mL/kg. One hour after the administration, the pain threshold was measured using von Frey filaments.

[3] = biological target: T2, human CB2 receptor (Homo sapiens, UniProt P34972); assay: GTPγS binding experiment via human CB2 receptor (membrane fraction of CHO-K1 cells); type: biochemical; conditions: for Emax: read-out: Emax value (maximum effect of CP55940 as 100%)
T2 construct: expressed in transfected cells
T2 sequence (P34972 whole entry): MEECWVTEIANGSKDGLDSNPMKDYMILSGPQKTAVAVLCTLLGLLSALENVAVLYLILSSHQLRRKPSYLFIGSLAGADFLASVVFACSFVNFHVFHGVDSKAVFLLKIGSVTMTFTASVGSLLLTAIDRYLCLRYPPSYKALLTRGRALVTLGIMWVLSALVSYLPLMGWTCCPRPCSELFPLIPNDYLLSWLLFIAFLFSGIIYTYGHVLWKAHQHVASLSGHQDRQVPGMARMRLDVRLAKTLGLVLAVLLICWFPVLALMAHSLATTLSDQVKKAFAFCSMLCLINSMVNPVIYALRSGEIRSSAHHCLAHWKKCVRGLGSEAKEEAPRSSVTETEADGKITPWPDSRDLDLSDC
Description: A test was carried out according to the method of Hillard et al. [The Journal of Pharmacology and Experimental Therapeutics, vol. 289, p. 1427 (1999)]. As for a membrane specimen, a membrane fraction was prepared from CHO-K1 cells in which a human CB2 receptor [Nature, vol. 365, pp. 61-65 (1993)] was stably expressed and used. The membrane specimen (final concentration: 40 μg of protein/mL) was incubated together with a test compound and [^35S]GTPγS (manufactured by PerkinElmer) (final concentration: 0.05 nmol/L) in an assay buffer (50 mmol/L Tris-HCl buffer (pH 7.4), 100 mmol/L NaCl, 1 mmol/L EDTA, 3 mmol/L MgCl2, and 0.1% bovine serum albumin) containing 20 μmol/L guanosine 5′-diphosphate (GDP) at 30° C. for 1 hour, and the resulting mixture was filtered using a glass filter GF/B (manufactured by Whatman). After the glass filter was washed with the assay buffer, the radioactivity on the glass filter was measured using a liquid scintillation counter (TRI-CARB 2700TR, manufactured by Packard). The binding amount in the presence of 10 μmol/L GTPγS was considered to be a non-specific binding amount, and a difference between the total binding amount and the non-specific binding amount was considered to be a specific binding amount. The ratio of increase in the specific binding amount in the presence of the test compound to the specific binding amount in the absence of the test compound was considered to be an agonistic activity of the test compound. The concentration of the test compound that produces 50% of the maximum effect (EC50 value) was calculated by performing a nonlinear regression analysis using the concentration-response data. The percentage of the maximum effect of the test compound (Emax value) was calculated by considering the maximum effect of CP55940 (manufactured by Tocris) measured at the same time as 100%.

[4] = rat spleen membrane, [3H]CP55940 0.5 nmol/L, 25° C., 1 hour, read-out: Ki value against the CB2 receptor

CCOc1ccc(Cc2nc(-c3cccc(C(=O)N(CC)CC)c3)cn2CC2CCOCC2)cc1 [Compound q, 3-[2-(4-Ethoxybenzyl)-1-(tetrahydropyran-4-ylmethyl)-1H-imidazol-4-yl]-N,N-diethylbenzamide]
Ki [1, 4]: < 1000 nM

CC(C)(C)c1nc(C=CC(=O)N(CC(F)(F)F)CC(F)(F)F)cn1CC1CCOCC1 [Compound 90, 3-(2-tert-Butyl-1-(tetrahydropyran-4-ylmethyl)-1H-imidazol-4-yl)-N,N-bis(2,2,2-trifluoroethyl)acrylamide]
Ki [1, 4]: < 1000 nM

CN(C)C(=O)c1cc(-c2cn(CC3CCOCC3)c(C(C)(C)C)n2)cs1 [Compound 133, 4-[2-tert-Butyl-1-(tetrahydropyran-4-ylmethyl)-1H-imidazol-4-yl]thiophene-2-carboxylic acid dimethylamide]
50% pain threshold (paw withdrawal threshold) [2]: significantly increased the pain threshold | Ki [1, 4]: < 1000 nM

CC(C)(C)c1nc(-c2cccc([N+](=O)[O-])c2)cn1CC1CCCCC1 [Compound 28, 2-tert-Butyl-1-cyclohexylmethyl-4-(3-nitrophenyl)-1H-imidazole]
Ki [1, 4]: < 1000 nM

CN(C)C(=O)c1cc(-c2cn(CC3(F)CCOCC3)c(C(C)(C)C)n2)cs1 [Compound 188, 4-[2-tert-Butyl-1-(4-fluorotetrahydropyran-4-ylmethyl)-1H-imidazol-4-yl]-N,N-dimethylthiophene-2-carboxamide]
Ki [1, 4]: < 1000 nM

CCOc1ccc(Cc2nc(-c3cccc(C#N)c3)cn2CC2CCOCC2)cc1 [Compound p, 3-[2-(4-Ethoxybenzyl)-1-(tetrahydropyran-4-ylmethyl)-1H-imidazol-4-yl]benzonitrile]
Ki [1, 4]: < 1000 nM

CCCN(CCC)C(=O)C=Cc1cn(CC2CCOCC2)c(C(C)(C)C)n1 [Compound 92, 3-(2-tert-Butyl-1-(tetrahydropyran-4-ylmethyl)-1H-imidazol-4-yl)-N,N-dipropylacrylamide]
Ki [1, 4]: < 1000 nM

CN(CC#N)C(=O)c1cncc(-c2cn(CC3CCOCC3)c(C(C)(C)C)n2)n1 [Compound 207, 6-[2-tert-Butyl-1-(tetrahydropyran-4-ylmethyl)-1H-imidazol-4-yl]-N-cyanomethyl-N-methylpyrazine-2-carboxamide]
50% pain threshold (paw withdrawal threshold) [2]: significantly increased the pain threshold | Ki [1, 4]: < 1000 nM

CC(C)(C)c1nc(-c2cncc(Br)c2)cn1CC1CCOCC1 [Compound 84, 3-Bromo-5-[2-tert-Butyl-1-(tetrahydropyran-4-ylmethyl)-1H-imidazol-4-yl]pyridine]
Ki [1, 4]: < 1000 nM

CCNC(=O)c1cccc(-c2cn(CC3CCOCC3)c(C(C)(C)C)n2)c1 [Compound 72, 3-(2-tert-Butyl-1-(tetrahydropyran-4-ylmethyl)-1H-imidazol-4-yl)-N-ethylbenzamide]
Ki [1]: < 1000 nM | EC50 [3]: < 1000 nM | Emax [3]: > 30%

CCN(CC)C(=O)c1cccc(-c2cn(CC3CCCCC3)c(C(C)(C)C)n2)c1 [Compound 32, 3-(2-tert-Butyl-1-cyclohexylmethyl-1H-imidazol-4-yl)-N,N-diethylbenzamide]
Ki [1, 4]: < 1000 nM

CC(C)C(=O)c1cccc(-c2cn(CC3CCOCC3)c(C(C)(C)C)n2)c1 [Compound 47, 1-{3-[2-tert-Butyl-1-(tetrahydropyran-4-ylmethyl)-1H-imidazol-4-yl]phenyl}-2-methylpropan-1-one hydrochloride]
Ki [1, 4]: < 1000 nM

CC(=O)c1cccc(-c2cn(CC3CCOCC3)c(C(C)(C)C)n2)c1 [Compound 49, 1-{3-[2-tert-Butyl-1-(tetrahydropyran-4-ylmethyl)-1H-imidazol-4-yl]phenyl}ethanone]
Ki [1, 4]: < 1000 nM | EC50 [3]: < 1000 nM | Emax [3]: > 30%

CN(C)C(=O)c1cccc(-c2cn(CC3(F)CCOCC3)c(C(C)(C)C)n2)c1 [Compound 187, 3-[2-tert-Butyl-1-(4-fluorotetrahydropyran-4-ylmethyl)-1H-imidazol-4-yl]-N,N-dimethylbenzamide]
50% pain threshold (paw withdrawal threshold) [2]: significantly increased the pain threshold | Ki [1, 4]: < 1000 nM

CCN(CC)c1cccc(-c2cn(CC3CCOCC3)c(C(C)(C)C)n2)c1 [Compound 77, {3-[2-tert-Butyl-1-(tetrahydropyran-4-ylmethyl)-1H-imidazol-4-yl]phenyl}-diethylamine]
Ki [1]: < 1000 nM | EC50 [3]: < 1000 nM | Emax [3]: > 30%

COc1cccc(-c2cn(CC3CCCCC3)c(CC(C)(C)C)n2)c1 [Compound 38, 1-Cyclohexylmethyl-2-(2,2-dimethylpropyl)-4-(3-methoxyphenyl)-1H-imidazole]
EC50 [3]: < 1000 nM | Emax [3]: > 30%

CC(C)(C)c1nc(-c2cccc(C(=O)N(CC(F)(F)F)CC(F)(F)F)c2)cn1CC1CCOCC1 [Compound 82, 3-(2-tert-Butyl-1-(tetrahydropyran-4-ylmethyl)-1H-imidazol-4-yl)-N,N-bis(2,2,2-trifluoroethyl)benzamide]
Ki [1]: < 1000 nM | EC50 [3]: < 1000 nM | Emax [3]: > 30%

CC(C)(C)c1nc(-c2cccc([N+](=O)[O-])c2)cn1CC1CCCCO1 (stereo not drawn) [Compound 42, 2-tert-Butyl-4-(3-nitrophenyl)-1-(tetrahydropyran-2-ylmethyl)-1H-imidazole]
Ki [1]: < 1000 nM | EC50 [3]: < 1000 nM | Emax [3]: > 30%

CC(C)(C)c1nc(-c2cccc(C(=O)c3ccccc3)c2)cn1CC1CCOCC1 [Compound 48, {3-[2-tert-Butyl-1-(tetrahydropyran-4-ylmethyl)-1H-imidazol-4-yl]phenyl}phenylmethanone hydrochloride]
Ki [1]: < 1000 nM | EC50 [3]: < 1000 nM | Emax [3]: > 30%

CCOc1ccc(Cc2nc(-c3cccc(OC)c3)cn2CC2CCOCC2)cc1 [Compound o, 2-(4-Ethoxybenzyl)-4-(3-methoxyphenyl)-1-(tetrahydro-pyran-4-ylmethyl)-1H-imidazole]
Ki [1, 4]: < 1000 nM
